Data set [1] concerns Beet Armyworm (BAW) (Spodoptera exigua). Kind of data set: Bioassay on Beet Armyworm (BAW), 128-well diet tray assay. It is filed as in vivo. Conditions: 50 μg/cm2 on artificial diet, second instar larvae, five to seven days; for mortality at 50 µg/cm2: Spodoptera exigua, 168 h, read-out: Rating BAW (% Control (or Mortality)). The protocol:
(§1) Certain molecules disclosed in this document were tested against BAW and CEW using procedures described in the following examples. In the reporting of the results, the “BAW & CEW Rating Table” was used (See Table Section).
Bioassays on BAW (Spodoptera exigua)
(§2) Trays were covered with a clear self-adhesive cover and held at 25° C., 14:10 light-dark for five to seven days. Percent mortality was recorded for the larvae in each well; activity in the eight wells was then averaged. The results are indicated in the table entitled “Table ABC: Biological Results” (See Table Section).

Data set [2] deals with Corn Earworm (CEW) (Helicoverpa zea). Nature of the data set: Bioassay on Corn Earworm (CEW), 128-well diet tray assay. The data set is classed as in vivo. To be noted: second instar larvae, five to seven days; for mortality at 50 µg/cm2 / mortality at 0.5 µg/cm2: Helicoverpa zea, 168 h; for mortality at 50 µg/cm2: read-out: Rating CEW (% Control (or Mortality)); for mortality at 0.5 µg/cm2: 0.5 μg/cm2 on artificial diet, read-out: Rating CEW (% Control (or Mortality)), *Tested at 0.5 μg/cm2. The protocol: as §1
Bioassays on CEW (Helicoverpa zea)
as §2

Turning to `Cc1cccc(C)c1-n1c(C)cs/c1=N\C(=O)Nc1ccc(-c2ncn(-c3ccc(OC(F)(F)F)cc3)n2)cc1` [Molecule A42], the mortality at 50 µg/cm2 in data set [1] was 0 to 50%; in data set [2] (50 μg/cm2 on artificial diet), 0%.
On to `Cc1cc(C)c(-n2c(C)cs/c2=N\C(=O)Nc2ccc(-c3ncn(-c4ccc(OC(F)(F)F)cc4)n3)cc2)c(C)c1` [Molecule A43, (Z)-1-(3-mesityl-4-methylthiazol-2(3H)-ylidene)-3-(4-(1-(4-(trifluoromethoxy)phenyl)-1H-1,2,4-triazol-3-yl)phenyl)urea], for which the results for the mortality at 50 µg/cm2 in data set [1] and in data set [2] (50 μg/cm2 on artificial diet) were 0% and 50 to 100%, respectively.
The like results for `CC(C)c1ccccc1N/C(S)=N/C(=O)Nc1ccc(-c2ncn(-c3ccc(OC(F)(F)F)cc3)n2)cc1` [Molecule A48] were, in that order, 50 to 100% and 50 to 100%.
For `Cc1cc(C)c(N/C(S)=N/C(=O)Nc2ccc(-c3ncn(-c4ccc(OC(F)(F)F)cc4)n3)cc2)c(C)c1` [Molecule A49], in that order: 50 to 100% and 50 to 100%.
With `COc1cc(C)c(N/C(S)=N/C(=O)Nc2ccc(-c3ncn(-c4ccc(OC(F)(F)F)cc4)n3)cc2)c(C)c1` [Molecule A50], the mortality at 50 µg/cm2 in data set [1] and in data set [2] (50 μg/cm2 on artificial diet) was 50 to 100% throughout.
As to `Cc1ccccc1NC(=O)NC(=O)Nc1ccc(-c2ncn(-c3ccc(OC(F)(F)F)cc3)n2)cc1` [Molecule A51], the mortality at 50 µg/cm2 in data set [1] and in data set [2] (50 μg/cm2 on artificial diet) was 50 to 100% in each case.
As to `CCc1ccccc1NC(=O)NC(=O)Nc1ccc(-c2ncn(-c3ccc(OC(F)(F)F)cc3)n2)cc1` [Molecule A52], the mortality at 50 µg/cm2 in data set [1] and in data set [2] (50 μg/cm2 on artificial diet) was 50 to 100% throughout.
For `COc1ccc(NC(=O)NC(=O)Nc2ccc(-c3ncn(-c4ccc(C(F)(F)F)cc4)n3)cc2)c(C)c1` [Molecule A53], the “Rating BAW (% Control (or Mortality))” value in data set [1] is on record as “D (No activity noticed in this bioassay)”. For the same compound, the “Rating CEW (% Control (or Mortality))” value in data set [2] (50 μg/cm2 on artificial diet) was “D (No activity noticed in this bioassay)”.
With `CCC(C)c1ccccc1N/C(=N\C(=O)Nc1ccc(-c2ncn(-c3ccc(OC(F)(F)F)cc3)n2)cc1)SCOC(=O)C(C)C` (stereo not shown) [Molecule A54], the mortality at 50 µg/cm2 in data set [1] and in data set [2] (50 μg/cm2 on artificial diet) was 50 to 100% each time.
As to `CCc1cccc(C)c1N/C(=N\C(=O)Nc1ccc(-c2ncn(-c3ccc(OC(F)(F)F)cc3)n2)cc1)SCOC(=O)C(C)C` [Molecule A55], the mortality at 50 µg/cm2 in data set [1] and in data set [2] (50 μg/cm2 on artificial diet) was 50 to 100% each time.
For the compound `COc1ccc(N/C(=N\C(=O)Nc2ccc(-c3ncn(-c4ccc(OC(F)(F)F)cc4)n3)cc2)SCOC(=O)C(C)C)c(C)c1` [Molecule A56], the mortality at 50 µg/cm2 in data set [1] and in data set [2] (50 μg/cm2 on artificial diet) was 50 to 100% each time.
Consider `CCc1ccccc1N/C(=N\C(=O)Nc1ccc(-c2ncn(-c3ccc(OC(F)(F)F)cc3)n2)cc1)SCOC(=O)C(C)C` [Molecule A57], for which the mortality at 50 µg/cm2 in data set [1] and in data set [2] (50 μg/cm2 on artificial diet) was 50 to 100% in each case.
For `CC(C)C(=O)OCS/C(=N/C(=O)Nc1ccc(-c2ncn(-c3ccc(OC(F)(F)F)cc3)n2)cc1)Nc1c(Cl)cccc1Cl` [Molecule A58], the mortality at 50 µg/cm2 in data set [1] and in data set [2] (50 μg/cm2 on artificial diet) was 50 to 100% throughout.
Turning to `Cc1cc(C)c(N/C(=N\C(=O)Nc2ccc(-c3ncn(-c4ccc(OC(F)(F)F)cc4)n3)cc2)SCOC(=O)C(C)C)c(C)c1` [Molecule A59], the mortality at 50 µg/cm2 in data set [1] and in data set [2] (50 μg/cm2 on artificial diet) was 50 to 100% throughout.
Regarding `Cc1ccccc1N/C(=N\C(=O)Nc1ccc(-c2ncn(-c3ccc(OC(F)(F)F)cc3)n2)cc1)SCOC(=O)C(C)C` [Molecule A60], the mortality at 50 µg/cm2 in data set [1] and in data set [2] (50 μg/cm2 on artificial diet) was 50 to 100% throughout.
Regarding `CC(C)C(=O)OCS/C(=N/C(=O)Nc1ccc(-c2ncn(-c3ccc(OC(F)(F)F)cc3)n2)cc1)Nc1c(F)cccc1F` [Molecule A61], the mortality at 50 µg/cm2 in data set [1] and in data set [2] (50 μg/cm2 on artificial diet) was 50 to 100% in each case.
In the case of `O=C(/N=C(\S)Nc1ccccc1C1CC1)Nc1ccc(-c2ncn(-c3ccc(OC(F)(F)F)cc3)n2)cc1` [Molecule A63], the mortality at 50 µg/cm2 in data set [1] was 50 to 100%. The mortality at 0.5 µg/cm2 in data set [2] fell in the range of 50 to 100%.
As to `CCCc1ccccc1N/C(S)=N/C(=O)Nc1ccc(-c2ncn(-c3ccc(OC(F)(F)F)cc3)n2)cc1` [Molecule A64], in data set [1], the mortality at 50 µg/cm2 was in the range of 50 to 100%. In addition, the mortality at 0.5 µg/cm2 in data set [2] lay within 50 to 100%.
On to `CC(C)(C)c1ccccc1N/C(S)=N/C(=O)Nc1ccc(-c2ncn(-c3ccc(OC(F)(F)F)cc3)n2)cc1` [Molecule A67], for which, in data set [1], the mortality at 50 µg/cm2 lay within 50 to 100%. For the same compound, in data set [2], the mortality at 0.5 µg/cm2 was 50 to 100%.
Consider `Cc1ccc(N/C(S)=N/C(=O)Nc2ccc(-c3ncn(-c4ccc(OC(F)(F)F)cc4)n3)cc2)c(C)c1` [Molecule A68], for which the mortality at 50 µg/cm2 in data set [1] was in the range of 50 to 100%. In addition, the mortality at 0.5 µg/cm2 in data set [2] fell in the range of 50 to 100%.
Turning to `Cc1cccc(Cl)c1N/C(S)=N/C(=O)Nc1ccc(-c2ncn(-c3ccc(OC(F)(F)F)cc3)n2)cc1` [Molecule A70], the mortality at 50 µg/cm2 in data set [1] was 50 to 100%. Besides, the mortality at 0.5 µg/cm2 in data set [2] lay within 50 to 100%.
As for `Cc1ccc(Cl)cc1N/C(S)=N/C(=O)Nc1ccc(-c2ncn(-c3ccc(OC(F)(F)F)cc3)n2)cc1` [Molecule A72], the mortality at 50 µg/cm2 in data set [1] lay in the range of 50 to 100%. Also, the mortality at 0.5 µg/cm2 in data set [2] lay in the range of 50 to 100%.
Regarding `Cc1ccc(N/C(S)=N/C(=O)Nc2ccc(-c3ncn(-c4ccc(OC(F)(F)F)cc4)n3)cc2)c(Cl)c1` [Molecule A73], the mortality at 50 µg/cm2 in data set [1] lay in the range of 50 to 100%. In addition, the mortality at 0.5 µg/cm2 in data set [2] is 50 to 100%.
For the compound `Cc1cccc(Cl)c1N1C(=O)CS/C1=N\C(=O)Nc1ccc(-c2ncn(-c3ccc(OC(F)(F)F)cc3)n2)cc1` [Molecule A74], the mortality at 50 µg/cm2 in data set [1] was in the range of 50 to 100%. In data set [2], the mortality at 0.5 µg/cm2 fell in the range of 50 to 100%.
With `Cc1cccc(N2C(=O)CS/C2=N\C(=O)Nc2ccc(-c3ncn(-c4ccc(OC(F)(F)F)cc4)n3)cc2)c1C` [Molecule A75], the mortality at 50 µg/cm2 in data set [1] lay within 50 to 100%. In addition, the mortality at 0.5 µg/cm2 in data set [2] fell in the range of 50 to 100%.
On to `Cc1ccc(Cl)cc1N1C(=O)CS/C1=N\C(=O)Nc1ccc(-c2ncn(-c3ccc(OC(F)(F)F)cc3)n2)cc1` [Molecule A76], for which the mortality at 50 µg/cm2 in data set [1] fell in the range of 50 to 100%. Also, in data set [2], the mortality at 0.5 µg/cm2 lay within 50 to 100%.
Consider `Cc1c(F)cccc1N/C(S)=N/C(=O)Nc1ccc(-c2ncn(-c3ccc(OC(F)(F)F)cc3)n2)cc1` [Molecule A79], for which, in data set [1], the mortality at 50 µg/cm2 fell in the range of 50 to 100%. Also, the mortality at 0.5 µg/cm2 in data set [2] was in the range of 50 to 100%.
With `CC(C)c1cccc(Cl)c1N/C(S)=N/C(=O)Nc1ccc(-c2ncn(-c3ccc(OC(F)(F)F)cc3)n2)cc1` [Molecule A81], the mortality at 50 µg/cm2 in data set [1] and in data set [2] (50 μg/cm2 on artificial diet) was 50 to 100% each time.
As for `CC(C)c1ccc(F)cc1N/C(S)=N/C(=O)Nc1ccc(-c2ncn(-c3ccc(OC(F)(F)F)cc3)n2)cc1` [Molecule A82], the mortality at 50 µg/cm2 in data set [1] is 50 to 100%. Besides, the mortality at 0.5 µg/cm2 in data set [2] fell in the range of 50 to 100%.
In the case of `Cc1ccc(N/C(S)=N/C(=O)Nc2ccc(-c3ncn(-c4ccc(OC(F)(F)F)cc4)n3)cc2)c(C(C)C)c1` [Molecule A84], the mortality at 50 µg/cm2 in data set [1] is 50 to 100%. Also, in data set [2], the mortality at 0.5 µg/cm2 is 50 to 100%.
As for `CC(C)c1ccc(F)cc1N1C(=O)CS/C1=N\C(=O)Nc1ccc(-c2ncn(-c3ccc(OC(F)(F)F)cc3)n2)cc1` [Molecule A86], in data set [1], the mortality at 50 µg/cm2 is 50 to 100%. Further, the mortality at 0.5 µg/cm2 in data set [2] is 50 to 100%.
On to `Cc1ccc(C(C)C)c(N2C(=O)CS/C2=N\C(=O)Nc2ccc(-c3ncn(-c4ccc(OC(F)(F)F)cc4)n3)cc2)c1` [Molecule A87], for which, in data set [1], the mortality at 50 µg/cm2 lay within 50 to 100%. The mortality at 0.5 µg/cm2 in data set [2] was 50 to 100%.

The values above are taken from patent US20150196033A1, “PESTICIDAL COMPOSITIONS AND PROCESSES RELATED THERETO” (priority 2012, published 2015).
